Assay results from ChEMBL document CHEMBL1138510, “Antimalarial peroxide dyads from natural artemisinin and hydroxyalkylated 1,2,4-trioxanes” (2009).

Test system: Plasmodium falciparum
Assay: Antiplasmodial activity against Plasmodium falciparum NF54 infected human A+ erythrocytes after 72 hrs as IC ratio relative to dihydroartemisinin
Type: functional

Row | SMILES | Ratio IC50
1 | C=C(C)[C@@H]1OOC(C)(C)O[C@@H]1CCO[C@H]1C[C@@H]2O[C@]3(C)CC[C@H]4[C@H](C)CC[C@@H]([C@H]1C)[C@@]24OO3 | 0.54
2 | C=C(C)[C@@H]1OOC2(CCCCC2)O[C@@H]1CCOC1C[C@@H]2O[C@]3(C)CC[C@H]4[C@H](C)CC[C@@H]([C@H]1C)[C@@]24OO3 (mixture of isomers) | 0.49
